Reference: patent publication US20040053407A1, “Method for in vitro culture of ovarian follicles” (priority 2000, published 2004)

Tested on: secondary follicles (folliculogenesis)
Experiment: In vitro follicle culture testing the influence of taxol on folliculogenesis and oocyte maturation
Type: cell-based, mouse
Details: secondary follicles scored after 13 days
Excerpt: Ovarian tissue is isolated from 12 to 14 days old F1 hybrids C57Bl/j6×CBAca mice and kept in a culture dish comprising Leibovitz's L15 medium with GlutaMAX I™ (Gibco BRL 31415-029) with 10% HIA FBS (Heat Inactivated Foetal Bovine Serum) and 0.1% penicillin-streptomycin-mix (Gibco BRL 3032908). The ovaries have to be freed of oviduct and fat.
Not all follicles in suspension from example 1 are suitable for follicle culture. To make sure that all follicles grow at approximately the same rate, the selected follicles should have a similar diameter. In this specific case, a diameter of between 100 and 130 μm is suitable and points to development of the follicle up to the early preantral (secondary) stage. […] FIG. 2b. Said follicles further comprise theca-interstitial cells 17, a basal membrane 19 and a zona pellucida 21. Follicles are observed under a stereomicroscope and measured under an inverted microscope. Suitable follicles are picked up using suitably arranged pasteur pipettes and transferred to a cryovial (for stocking, see example 3) or to a culture plate (for follicle culture, see example 4).
When starting from secondary follicles, one can start immediately with culture using the second medium. This medium will promote adhesion to the culture recipient surface. Culture medium is refreshed every four days. On day 12, the culture medium is refreshed using the third medium in stead of the second. This medium will cause the release of a mucified oocyte-cumulus complex from the follicle overnight, while the oocyte finalises maturation.
Cultures are done in 75 μl of culture medium. When refreshing medium, 30 μl of used medium is removed and 30 μl of fresh medium is added. Schematically, both procedures can be summarised as follows:
The same method is used as in example 4. Secondary follicles are used. […] All media used in the culture steps are constituted as follows:
The culture medium is refreshed every 4 days by removing 30 μl and addition of 30 μl of fresh medium.
After 13 days, follicles are scored on survival, mucification, presence of polar body (PB), and oocyte diameter.

[1] = Taxol 0.01 nM in all media (plates 3+4)
[2] = Taxol 0.1 nM in all media (plates 5+6)
[3] = Taxol 1 nM in all media (plates 7+8)
[4] = Taxol 10 nM in all media (plate 9)

## CC(=O)O[C@H]1C(=O)[C@@]2(C)[C@H]([C@H](OC(=O)c3ccccc3)[C@]3(O)C[C@H](OC(=O)[C@H](O)[C@@H](NC(=O)c4ccccc4)c4ccccc4)C(C)=C1C3(C)C)[C@]1(OC(C)=O)CO[C@@H]1C[C@@H]2O [Taxol]
[1]
  Mucification mean: 100%
  PB (presence of polar body) mean: 75%
  Survival mean: 87%
[2]
  Mucification mean: 96%
  PB (presence of polar body) mean: 75%
  Survival mean: 100%
[3]
  Mucification mean: 96%
  PB (presence of polar body) mean: 55%
  Survival mean: 92%
[4]
  Mucification mean: 0
  PB (presence of polar body) mean: 0
  Survival mean: 0%
